Experimental data taken from US8999957B2, “Heterocyclic compounds as ERK inhibitors” (Merck Sharp & Dohme Corp., priority 2010, dated 2015).

Biological target: fully phosphorylated, active Mouse ERK2 protein (Mus musculus (Mouse), UniProt P63085)
Assay: Active ERK2 (aERK) IMAP assay, condition 1
Assay type: biochemical
Settings: aERK assay condition 1, 30 μM ATP
Experimental: Active ERK2 (aERK) Assay: (Unless Indicated Otherwise, the Data Provided for aERK was obtained using Condition 1)
Activated ERK2 activity was also determined in the IMAP assay format using the procedure outlined above. […] Reactions proceeded for 30 minutes before termination by addition of 60 μl IMAP detection beads in binding buffer. Plates were read as above after 30 minute binding equilibration.

Chain of fully phosphorylated, active Mouse ERK2 protein (P63085 whole entry): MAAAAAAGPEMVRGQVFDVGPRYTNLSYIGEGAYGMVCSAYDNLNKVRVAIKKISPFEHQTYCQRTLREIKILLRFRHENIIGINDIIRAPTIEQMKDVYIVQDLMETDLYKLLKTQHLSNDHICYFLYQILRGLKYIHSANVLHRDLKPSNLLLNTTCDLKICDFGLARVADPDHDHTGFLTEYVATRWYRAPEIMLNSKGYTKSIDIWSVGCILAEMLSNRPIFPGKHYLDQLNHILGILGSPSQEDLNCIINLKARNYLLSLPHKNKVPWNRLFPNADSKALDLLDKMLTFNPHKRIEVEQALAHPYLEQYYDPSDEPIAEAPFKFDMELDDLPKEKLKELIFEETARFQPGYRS

Structure (SMILES) | IC50 [nM]
COc1cccc(F)c1CN1C[C@H](C)C[C@H](NC(=O)c2ccc3[nH]nc(-c4ccc5ncsc5c4)c3c2)C1 | 15.2
COc1cccc(F)c1CN1C[C@@H](C)C[C@@H](NC(=O)c2ccc3[nH]nc(-c4ccc5nc(C)sc5c4)c3c2)C1 | 3.67
COc1cccc(F)c1CN1CCCC(NC(=O)c2ccc3[nH]nc(-c4ccnc(C)c4)c3c2)C1C (centres unmarked) | 66.9
Cc1cc(-c2n[nH]c3ccc(C(=O)N[C@@H]4CCCN(CC(F)(F)c5ccccc5F)C4)cc23)ccn1 | 170
O=C(NC12CC1CCN(Cc1c(F)cccc1F)C2)c1ccc2[nH]nc(-c3ccc4nccn4c3)c2c1 (centres unmarked) | 136
O=C(N[C@@H]1CNCC[C@H]1c1ccccc1)c1ccc2[nH]nc(-c3ccc4c(c3)CCO4)c2c1 | 23
COc1cccc(F)c1CN1CCC[C@@H](NC(=O)c2ccc3[nH]nc(-c4nc5ccccc5s4)c3c2)C1 | 296
Cn1cc2cc(-c3n[nH]c4ccc(C(=O)N[C@H]5CCN[C@H](Cc6ccccc6)C5)cc34)ccc2n1 | 33.8
CNC(=O)[C@@H]1CC[C@@H](NC(=O)c2ccc3[nH]nc(-c4ccncc4)c3c2)CN1Cc1c(F)cccc1OC [drawing 383] | 2.41
Cc1cccc(C)c1CN1CC(NC(=O)c2ccc3[nH]nc(-c4ccncc4)c3c2)CC(F)(F)C1 (centres unmarked) | 457
COc1cccc(F)c1CN1CCC(F)C(NC(=O)c2ccc3[nH]nc(-c4ccc5nccn5c4)c3c2)C1 (centres unmarked) | 16.3
COc1cccc(F)c1CN1C[C@H](C)C[C@H](NC(=O)c2ccc3[nH]nc(-c4ccc5nsnc5c4)c3c2)C1 | 73.6
COc1cccc(F)c1CN1CCC(O)C(NC(=O)c2ccc3[nH]nc(-c4ccc5nccn5c4)c3c2)C1 (centres unmarked) | 42.1
O=C(NC1CCCCN(CCc2ccc(F)cc2)C1)c1ccc2[nH]nc(-c3ccncc3)c2c1 (centres unmarked) | 98.1
O=C(NC12CC1CCN(Cc1ccccc1)C2)c1ccc2[nH]nc(-c3ccc4nccn4c3)c2c1 (centres unmarked) | 200
CCc1nnc2ccc(-c3n[nH]c4ccc(C(=O)N[C@@H]5CCCN(Cc6c(F)cccc6OC)C5)cc34)cn12 | 70.9
CCOC(=O)C1CCN(Cc2ccccc2)CC1NC(=O)c1ccc2[nH]nc(-c3ccncc3)c2c1 (centres unmarked) | 191
COc1cccc(F)c1CN1CCC[C@@H](NC(=O)c2ccc3[nH]nc(-c4ccc5nonc5c4)c3c2)C1 | 301
O=C(NC1CCCCN(CCc2cccc(F)c2)C1)c1ccc2[nH]nc(-c3ccncc3)c2c1 (centres unmarked) | 13.4
O=C(N[C@@H]1CCCN(Cc2c(F)cccc2F)C1)c1ccc2[nH]nc(-c3ccncc3)c2c1 | 36.2
COC[C@H]1CC[C@@H](NC(=O)c2ccc3[nH]nc(-c4ccncc4)c3c2)CN1Cc1c(F)cccc1OC | 456
O=C(N[C@H]1CN(Cc2c(F)cccc2F)CC(F)(F)C1)c1ccc2[nH]nc(-c3ccc4nccn4c3)c2c1 | 234
COc1cccc(F)c1CN1C[C@H](NC(=O)c2ccc3[nH]nc(-c4ccncc4)c3c2)CCC1CO (some centres unmarked) | 3.58
COc1cccc(F)c1CN1CCC[C@@H](NC(=O)c2ccc3[nH]nc(-c4ccc5nncn5c4)c3c2)C1 | 6.46
COc1cccc(F)c1CN1CC(NC(=O)c2ccc3[nH]nc(-c4ccnc(C)c4)c3c2)CCC1C (centres unmarked) | 26.8
CC(C)Oc1cc(-c2n[nH]c3ccc(C(=O)N[C@@H]4CNCC[C@H]4c4ccccc4)cc23)ccn1 | 141
CN1C[C@@H](Cc2c(F)cccc2F)C[C@@H](NC(=O)c2ccc3[nH]nc(-c4ccc5nonc5c4)c3c2)C1 | 8.82

Structure (SMILES) | IC50 [nM]
COc1cccc(F)c1CN1C[C@H](NC(=O)c2ccc3[nH]nc(-c4ccc5nccn5c4)c3c2)C[C@H](C(F)(F)F)C1 [drawing 317] | 18
O=C(NC1CN(Cc2ccccc2)CC(F)(F)C1)c1ccc2[nH]nc(-c3ccncc3)c2c1 (centres unmarked) | 144
CC(C)(C)OC(=O)N1CC[C@@H](c2ccccc2)[C@H](NC(=O)c2ccc3[nH]nc(-c4ccc5c(c4)CCO5)c3c2)C1 | 300
O=C(N[C@@H]1CC[C@@H](C(=O)NCc2ccccc2)N(Cc2ccccc2)C1)c1ccc2[nH]nc(-c3ccncc3)c2c1 [drawing 352] | 47.5
COc1cccc(F)c1CN1C[C@H](NC(=O)c2ccc3[nH]nc(-c4ccc5nccn5c4)c3c2)CC(F)(F)C1 | 23.9
CN1C[C@H](NC(=O)c2ccc3[nH]nc(-c4ccncc4)c3c2)CC[C@H]1C(=O)NCc1ccccc1 | 350
O=C(NC1CCCCN(CCc2c(F)cccc2F)C1)c1ccc2[nH]nc(-c3ccncc3)c2c1 (centres unmarked) | 43.3
O=C(NC1COCCN(CCc2cccc(F)c2)C1)c1ccc2[nH]nc(-c3ccncc3)c2c1 (centres unmarked) | 61.6
COc1cccc(F)c1CN1C[C@@H](C)C[C@@H](NC(=O)c2ccc3[nH]nc(-c4nc5ccccc5s4)c3c2)C1 | 61.3
O=C(N[C@@H]1CCCN(Cc2ccc3occc3c2)C1)c1ccc2[nH]nc(-c3ccc4c(c3)CCO4)c2c1 | 22.9
CCN1CC[C@@H](c2ccccc2)[C@H](NC(=O)c2ccc3[nH]nc(-c4ccc(OC(C)C)nc4)c3c2)C1 | 300
CN(C)C(=O)[C@@H]1CC[C@@H](NC(=O)c2ccc3[nH]nc(-c4ccncc4)c3c2)CN1Cc1ccccc1 | 51.3
CN1CC(Cc2ccccc2)CC(NC(=O)c2ccc3[nH]nc(-c4ccncc4)c3c2)C1 (centres unmarked) | 8.34
Cc1cc(-c2n[nH]c3ccc(C(=O)N[C@@H]4CCCN(CC(O)c5ccccc5F)C4)cc23)ccn1 (some centres unmarked) | 181
O=C(N[C@@H]1CCCN(Cc2c(F)cccc2F)C1)c1ccc2[nH]nc(-c3ccc4c(c3)CCO4)c2c1 | 173
CC(C)Oc1ccc(-c2n[nH]c3ccc(C(=O)N[C@@H]4CNC[C@H](c5ccccc5)C4)cc23)cc1 | 45.1
CC(C)Oc1ccc(-c2n[nH]c3ccc(C(=O)N[C@@H]4CN(C)CC[C@H]4c4ccccc4)cc23)cn1 | 300
CCN1CC(Cc2c(F)cccc2F)CC(NC(=O)c2ccc3[nH]nc(-c4ccc5nn(C)cc5c4)c3c2)C1 (centres unmarked) | 3.09
COc1cccc(F)c1CN1C[C@H](NC(=O)c2ccc3[nH]nc(-c4ccc5nccn5c4)c3c2)CCC1=O | 69.2
CN1C[C@@H](Cc2c(F)cccc2F)C[C@H](NC(=O)c2ccc3[nH]nc(-c4ccn5ccnc5c4)c3c2)C1 | 150
O=C(NC1CN(C(=O)OCc2ccccc2)CC(F)(F)C1)c1ccc2[nH]nc(-c3ccncc3)c2c1 (centres unmarked) | 105
CN1CC(Cc2c(F)cccc2F)CC(NC(=O)c2ccc3[nH]nc(-c4ccc5nn(C)cc5c4)c3c2)C1 (centres unmarked) | 1.4
COC(=O)[C@H]1CC[C@@H](NC(=O)c2ccc3[nH]nc(-c4ccncc4)c3c2)CN1Cc1ccccc1 | 133
CCN1CC[C@@H](c2ccccc2)[C@H](NC(=O)c2ccc3[nH]nc(-c4ccc(OC(C)C)cc4)c3c2)C1 | 650
O=C(NC1COCCN(CCc2ccccc2F)C1)c1ccc2[nH]nc(-c3ccncc3)c2c1 (centres unmarked) | 9.84
Cc1nc2ccc(-c3n[nH]c4ccc(C(=O)N[C@@H]5C[C@@H](Cc6c(F)cccc6F)CN(C)C5)cc34)cn2n1 | 47.6
COc1cccc(F)c1CN1C2CCC(NC(=O)c3ccc4[nH]nc(-c5ccnc(C)c5)c4c3)C1CC2 (centres unmarked) | 20.4

Structure (SMILES) | IC50 [nM]
COc1cccc(F)c1CN1CCC[C@@H](NC(=O)c2ccc3[nH]nc(-c4ccncc4)c3c2)C1 | 13.9
CC(C)C(NC(=O)[C@@H]1CC[C@@H](NC(=O)c2ccc3[nH]nc(-c4ccncc4)c3c2)CN1Cc1ccccc1)C(C)C | 262
COc1cccc(F)c1CN1C[C@H](NC(=O)c2ccc3[nH]nc(-c4ccc5nccn5c4)c3c2)C[C@H](C(F)(F)F)C1 [drawing 377] | 4.46
O=C(N[C@@H]1CCCNC1)c1ccc2[nH]nc(-c3ccncc3)c2c1 | 835
CC(C)Oc1ccc(-c2n[nH]c3ccc(C(=O)N[C@@H]4CNCC[C@H]4c4ccccc4)cc23)cn1 | 84.9
O=C(N[C@@H]1CCCN(Cc2c(F)cccc2F)C1)c1ccc2[nH]nc(-c3ccnc(Cl)c3)c2c1 | 62.3
O=C(N[C@@H]1CC[C@H](C(=O)NCc2ccccc2)NC1)c1ccc2[nH]nc(-c3ccncc3)c2c1 | 371
CN1CC(Cc2c(F)cccc2F)CC(NC(=O)c2ccc3[nH]nc(-c4nc5ccccc5s4)c3c2)C1 (centres unmarked) | 22.4
O=C(N[C@@H]1CCCN(Cc2ncon2)C1)c1ccc2[nH]nc(-c3ccncc3)c2c1 | 50.1
COc1cccc(F)c1CN1C[C@@H](C)C[C@@H](NC(=O)c2ccc3[nH]nc(-c4ccc5nonc5c4)c3c2)C1 | 128
O=C(NC1CCCCN(Cc2ccccc2F)C1)c1ccc2[nH]nc(-c3ccncc3)c2c1 (centres unmarked) | 79.2
COc1cccc(F)c1CN1C[C@H](NC(=O)c2ccc3[nH]nc(-c4ccc5nccn5c4)c3c2)C[C@@H](C(F)(F)F)C1 | 181
O=C(NC1CCCCN(Cc2c(F)cccc2F)C1)c1ccc2[nH]nc(-c3ccncc3)c2c1 (centres unmarked) | 148
N#Cc1cccc(CN2CCC[C@@H](NC(=O)c3ccc4[nH]nc(-c5ccc6c(c5)CCO6)c4c3)C2)c1 | 999
CC(C)Oc1ccc(-c2n[nH]c3ccc(C(=O)N[C@@H]4CNCC[C@H]4c4ccccc4)cc23)cc1 | 49.9
O=C(N[C@@H]1CC[C@@H](C(=O)NCc2ccccc2)NC1)c1ccc2[nH]nc(-c3ccncc3)c2c1 | 120
O=C(NC1COCCN(CCc2c(F)cccc2F)C1)c1ccc2[nH]nc(-c3ccncc3)c2c1 (centres unmarked) | 20.8
O=C(CN1CCCCC(NC(=O)c2ccc3[nH]nc(-c4ccncc4)c3c2)C1)c1ccccc1 (centres unmarked) | 34.8
CN1CC(NC(=O)c2ccc3[nH]nc(-c4ccc5nccn5c4)c3c2)CCC1C1CC1 (centres unmarked) | 395
O=C(NC1CCCCN(CCc2cccc3ccccc23)C1)c1ccc2[nH]nc(-c3ccncc3)c2c1 (centres unmarked) | 12.9
COc1cccc(F)c1CN1C[C@@H](C)C[C@@H](NC(=O)c2ccc3[nH]nc(-c4ccn5ncnc5c4)c3c2)C1 | 15.1
CN1CC(Cc2c(F)cccc2F)CC(NC(=O)c2ccc3[nH]nc(-c4ccn5ncnc5c4)c3c2)C1 (centres unmarked) | 3.83
COc1cccc(F)c1CN1CCCCC(NC(=O)c2ccc3[nH]nc(-c4ccncc4)c3c2)C1 (centres unmarked) | 231
COC(=O)[C@@H]1CC[C@@H](NC(=O)c2ccc3[nH]nc(-c4ccncc4)c3c2)CN1 | 144
COc1ccccc1CCN1CCCCC(NC(=O)c2ccc3[nH]nc(-c4ccncc4)c3c2)C1 (centres unmarked) | 31.1
COc1cccc(F)c1CN1CCC[C@@H](NC(=O)c2ccc3[nH]nc(-c4ccn5ncnc5c4)c3c2)C1 | 68.9
